Tests used:
Format in all cases: in vivo
[1] = test system: Rhipicephalus (Boophilus) microplus larvae (strain Parkhurst, resistant against synthetic pyrethroids); assay: Rhipicephalus (Boophilus) microplus in-vitro contact test, larval cattle tick; settings: after 48 hours, read-out: activity (efficacy: larvae dead or moribund); for pest or weed control at 1 µg/cm2, 100 g/ha: application rate 1 μg/cm^2 (=100 g/ha); for pest or weed control at 5 µg/cm2, 500 g/ha: application rate 5 μg/cm^2 (=500 g/ha)
Summary of the method: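 Acetone solutions were coated onto glass tube walls, giving 5 μg/cm^2 at 900 ppm. Once dry, 20–50 pyrethroid-resistant Parkhurst larvae were added per tube and held 48 h at 27 °C and 85% RH. Efficacy was scored by negative geotaxis as the percentage of dead or moribund larvae.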

[2] = test system: adult engorged female ticks (Rhipicephalus microplus); assay: Rhipicephalus (Boophilus) microplus injection test; settings: 168 h, application rate 4 μg/tick, egg deposition after 7 days, read-out: activity (efficacy: infertile eggs)
Protocol: Rhipicephalus (Boophilus) microplus—Injection Test
(§1) Solvent: dimethyl sulfoxide
To produce a suitable preparation of active compound, 10 mg of active compound are dissolved in 0.5 mL solvent, and the concentrate is diluted with solvent to the desired concentration.
Five adult engorged female ticks (Rhipicephalus microplus) are injected with 1 μL compound solution into the abdomen. The ticks are transferred into replica plates and incubated in a climate chamber.
After 7 days egg deposition of fertile eggs is monitored. Eggs where fertility is not visible are stored in a climate chamber till hatching after about 42 days. An efficacy of 100% means all eggs are infertile; 0% means all eggs are fertile.

[3] = test system: adult unfed cat fleas (Ctenocephalides felis); assay: Ctenocephalides felis oral test; settings: 48 h, read-out: activity (mortality)
Protocol: Ctenocephalides felis—Oral Test
as §1
To produce a suitable preparation of active compound, 10 mg of active compound are dissolved in 0.5 mL solvent, and the concentrate is diluted with citrated cattle blood to the desired concentration.
Approximately 20 adult unfed cat fleas (Ctenocephalides felis) are placed in a flea chamber whose top and bottom is covered with gauze. A chamber whose bottom is sealed with parafilm, is filled with the blood-compound solution and placed on top of the flea chamber, so that the fleas can suck the blood. The blood chamber is heated to 37° C. whereas the flea chamber is kept at room temperature.
After 2 days mortality in % is determined. 100% means all the fleas have been killed; 0% means none of the fleas have been killed.

[4] = test system: green peach aphid (Myzus persicae); assay: Myzus persicae oral test; settings: 120 h, read-out: activity (mortality)
Summary of the method: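 Acetone stock (1 pbw compound/100 pbw solvent) diluted in water; mixed with sugar-supplemented IPL41 medium; parafilm-sealed; mixed aphid population sucks through film; mortality % read at 5 d.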

[5] = test system: adult brown dog ticks (Rhipicephalus sanguineus); assay: Rhipicephalus sanguineus in-vitro contact test, adult brown dog ticks; settings: application rate 5 μg/cm^2 (=500 g/ha), after 48 hours, read-out: activity (efficacy: ticks dead or moribund)
Summary of the method: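 Acetone solution (900 ppm giving 5 μg/cm²) coated on inner walls of glass tubes; after drying, 5-10 adult ticks added and held at room temperature 48 h. Ticks then placed on 45-50 °C plate ≤5 min; those unable to climb away scored dead/moribund, efficacy as % affected.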

[6] = test system: fall armyworm larvae (Spodoptera frugiperda); assay: Spodoptera frugiperda spray test; settings: 168 h, application rate 100 g/ha, after 7 days, maize leaf sections
Summary of the method: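 Maize leaf sections sprayed with compound diluted in water with 1000 ppm emulsifier, then infested with larvae once dry. Mortality (%) scored after 7 days; 100% = all caterpillars killed.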

[7] = test system: adult mosquitoes Aedes aegypti strain MONHEIM; assay: Aedes aegypti test (AEDSAE surface treatment & contact assay); settings: surface concentration 20 mg/m^2, exposure 30 minutes, 24 hours after contact, read-out: efficacy (mortality)
Protocol: Aedes aegypti Test (AEDSAE Surface Treatment & Contact Assay)
(§2) Solvent: Aceton+2000 ppm rapeseed oil methyl ester (RME)
In order to produce a sufficient, active ingredient containing solution it is necessary to solve the test compound in the solvent-mix (acetone at 2 mg/ml/RME 2000 ppm). This solution is pipetted onto a glazed tile and after evaporation of the acetone, adult mosquitoes of the species Aedes aegypti strain MONHEIM are placed onto the dried surface. The exposure time is 30 minutes.
(§3) Mortality in percent (%) is determined 24 hours after contact of the insects to the treated surface. 100% mortality means that all tested insects are dead, whereas 0% means that no insect died.

[8] = test system: adult cat fleas (Ctenocephalides felis); assay: Ctenocephalides felis in-vitro contact test, adult cat flea; settings: application rate 5 μg/cm^2 (=500 g/ha), after 48 hours, read-out: activity (efficacy: fleas dead or moribund)
Summary of the method: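 Acetone solutions of compound were coated onto inner walls of glass tubes (900 ppm giving 5 μg/cm^2) and dried; 5-10 adult C. felis were then held 48 h at room temperature. Efficacy = % fleas dead or moribund, judged by inability to escape a 45-50° C heating plate within 5 min.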

[9] = test system: larvae of the banded cucumber beetle (Diabrotica balteata); assay: Diabrotica balteata spray test; settings: 168 h, application rate 100 g/ha (=32 μg/well), after 7 days, wheat seeds, read-out: activity (efficacy: seedlings grown)
Summary of the method: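 Wheat seeds germinated 1 day on agar were sprayed with compound diluted in water with 1000 ppm emulsifier, then infested with 10-20 Diabrotica balteata larvae. Efficacy in % scored after 7 days: 100% = seedlings grown as untreated, uninfected control; 0% = no seedlings grown.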

[10] = test system: green peach aphid (Myzus persicae); assay: Myzus persicae spray test; settings: foliar, 120 h, after 5 days, Chinese cabbage leaf disks; for mortality at 100 g/ha: application rate 100 g/ha, read-out: activity (mortality)
Summary of the method: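 Chinese cabbage leaf disks infested with all aphid instars were sprayed with compound diluted in water containing emulsifier (1000 ppm). Mortality (%) was scored after 5 days, 100% meaning all aphids killed.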

[11] = test system: larvae of the southern green stink bug (Nezara viridula); assay: Nezara viridula spray test; settings: 96 h, after 4 days, barley plants; for mortality at 500 g/ha: application rate 500 g/ha, read-out: activity (mortality); for mortality at 100 g/ha: application rate 100 g/ha
Protocol: Nezara viridula—Spray Test
To produce a suitable preparation of active compound, 1 part by weight of active compound is mixed with the stated amount of solvent, and the concentrate is diluted with water, containing an emulsifier concentration of 1000 ppm, to the desired concentration. Further test concentrations are prepared by dilution with emulsifier containing water.
Barley plants (Hordeum vulgare) are sprayed with a test solution containing the desired concentration of the active ingredient and are infested with larvae of the southern green stink bug (Nezara viridula).
After 4 days mortality in % is determined. 100% means all the stink bugs have been killed; 0% means none of the stink bugs have been killed.

[12] = test system: adult flies Musca domestica strain WHO-N; assay: Musca domestica test (MUSCDO surface treatment & contact assay); settings: 24 hours after contact, read-out: efficacy (mortality); for mortality at 20 mg/m2: surface concentration 20 mg/m^2, exposure 30 minutes
Protocol: Musca domestica Test (MUSCDO Surface Treatment & Contact Assay)
as §2
In order to produce a sufficient, active ingredient containing solution it is necessary to solve the test compound in the solvent-mix (acetone at 2 mg/ml/RME 2000 ppm). This solution is pipetted onto a glazed tile and after evaporation of the acetone, adult flies of the species Musca domestica strain WHO-N are placed onto the dried surface. The exposure time is 30 minutes.
as §3

Row | Compound | pest or weed control at 1 µg/cm2, 100 g/ha [1] [%] | pest or weed control at 5 µg/cm2, 500 g/ha [1] [%] | pest or weed control at 0.004 mg [2] [%] | mortality at 100 ppm [3] [%] | mortality at 4 ppm [4] [%] | pest or weed control at 5 µg/cm2, 500 g/ha [5] [%] | mortality at 100 g/ha [6] [%] | mortality at 20 mg/m2 [7] [%] | pest or weed control at 5 µg/cm2 [8] [%] | pest or weed control at 32 µg/disc, 100 g/ha [9] [%] | mortality at 500 g/ha ([10]; application rate 500 g/ha) [%] | mortality at 500 g/ha [11] [%] | mortality at 20 mg/m2 [12] [%] | mortality at 100 g/ha [10] [%] | mortality at 100 g/ha [11] [%] | mortality at 4 mg/m2 ([12]; surface concentration 4 mg/m^2, exposure 30 minutes) [%]
1 | CC(NC(=O)c1cc(Br)cc(Br)c1)c1nc(Cl)nn1-c1ccc(C(=O)N2CCOCC2)cn1 (racemic) [Example I-87, 3,5-Dibromo-N-[1-[5-chloro-2-[5-(morpholine-4-carbonyl)-2-pyridyl]-1,2,4-triazol-3-yl]ethyl]benzamide] | 100 | 90 | 100 | 90 |  |  |  |  |  |  |  |  |  |  |  | 
2 | C[C@H](NC(=O)c1cc(C(F)(F)F)cc(C(F)(F)F)c1)c1ncnn1-c1cc(C(=O)N2CCOCC2)ccn1 [Example I-3] | 100 | 100 |  | 90 | 90 | 100 |  |  |  |  |  |  |  |  |  | 
3 | C[C@H](NC(=O)c1cc(C(F)(F)F)cc(C(F)(F)F)c1)c1ncnn1-c1ccc(C(=O)N2CC3(COC3)C2)cn1 [Example I-12] | 100 | 100 | 100 |  | 100 | 100 | 100 | 80 to 100 | 90 |  |  |  |  |  |  | 
4 | C[C@H](NC(=O)c1cc(Cl)cc(C(F)(F)F)c1)c1ncnn1-c1ccc(C(=O)N2CCN(C)CC2)cn1 [Example I-42] | 100 |  | 100 | 80 |  |  |  |  |  | 80 |  |  |  |  |  | 
5 | C[C@H](NC(=O)c1cc(C(F)(F)F)cc(C(F)(F)F)c1)c1ncnn1-c1ccc(C(=O)NC2CCOC2)cn1 (stereo partly shown) [Example I-61] | 90 | 90 |  |  | 100 |  | 100 | 80 to 100 |  |  | 90 | 100 |  |  |  | 
6 | C[C@H](NC(=O)c1cc(C(F)(F)F)cc(C(F)(F)F)c1)c1ncnn1-c1ccc(C(=O)N2CCOC[C@@H]2C)cn1 [Example I-67] | 100 | 100 |  |  | 100 |  | 100 | 80 to 100 | 100 | 100 |  |  | 80 to 100 |  |  | 
7 | Cc1nc([C@H](C)NC(=O)c2cc(C(F)(F)F)cc(C(F)(F)F)c2)n(-c2ccc(C(=O)N3CCO[C@H](C)C3)cn2)n1 [Example I-70] | 100 | 100 |  |  | 100 | 100 | 100 | 80 to 100 | 100 | 100 |  |  | 80 to 100 | 90 | 90 | 80 to 100
8 | Cc1nc([C@H](C)NC(=O)c2cc(C(F)(F)F)cc(C(F)(F)F)c2)n(-c2ccc(C(=O)N3CCOC[C@H]3C)cn2)n1 [Example I-72] | 100 | 100 |  |  |  | 100 | 100 |  | 100 | 100 |  |  | 80 to 100 |  |  | 
9 | C[C@@H]1CN(C(=O)c2ccc(-n3nc(C4CC4)nc3[C@H](C)NC(=O)c3cc(C(F)(F)F)cc(C(F)(F)F)c3)nc2)C[C@H](C)O1 [Example I-89] | 100 | 100 |  |  |  | 100 | 100 |  | 100 | 100 |  | 100 | 80 to 100 |  |  | 
10 | C[C@H](NC(=O)c1cc(Cl)cc(C(F)(F)F)c1)c1ncnn1-c1ccc(N2CC(F)(F)C2)cn1 [Example I-108] |  |  |  | 100 |  |  |  |  |  |  |  |  |  |  |  | 
11 | C[C@H](NC(=O)c1cc(C(F)(F)F)cc(C(F)(F)F)c1)c1ncnn1-c1ccc(C(=O)N(C)C2COC2)cn1 [Example I-112] | 100 | 100 |  |  | 70 |  | 100 | 80 to 100 | 90 |  |  |  | 80 to 100 | 100 | 100 | 

Source: patent US20230058623A1, “NOVEL HETEROARYL-TRIAZOLE COMPOUNDS AS PESTICIDES” (Bayer Aktiengesellschaft, priority 2019, published 2023)
